The numbers were not newly measured in patent publication US10001483B2, “Methods for the treatment of Kaposi's sarcoma or KSHV-induced lymphoma using immunomodulatory compounds, and uses of biomarkers” (Celgene Corporation, priority 2015, dated 2018), which cites them from elsewhere.

Read-outs that look alike come from different tables or passages of the source.

For this series the following is noted: patients, cited from earlier work.

For the molecule `Nc1cccc2c1CN(C1CCC(=O)NC1=O)C2=O` (stereo not shown) [lenalidomide, 3-(4-amino-1-oxo 1,3-dihydro-2H-isoindol-2-yl) piperidine-2,6-dione], under “approved dose 25 mg”, the Cmax is given as 451 ng/mL and the “Plasma Serum Concentration” value is 2 µM.

Turning to `O=C1CCC(N2C(=O)c3ccccc3C2=O)C(=O)N1` (stereo not shown) [thalidomide, 2-(2,6-dioxopiperidin-3-yl)-1H-isoindole-1,3(2H)-dione], where the note is “approved dose 200 mg”, the Cmax was 1760 ng/mL and the “Plasma Serum Concentration” value was 7 µM.
